# Source: patent US7091220B2, “Substituted indole Mannich bases” (Gruenenthal GmbH, priority 1999, dated 2006)
# Target: T1, 5-HT transporter (Rattus norvegicus, UniProt P31652)
# T1 construct: these vesicular particles were isolated from the pons and medulla oblongata region of the male rat brain; from tissue; host or cells: rat brain synaptosomes (P2 fraction) from pons and medulla oblongata of male rats
# Assay: Inhibition of serotonin re-uptake (5-HT uptake inhibition) in rat brain synaptosomes
# Format: biochemical
# Conditions: rat brain synaptosomes (P2 fraction, pons and medulla oblongata); means from 2 parallel experiments; concentration not given
# Procedure: The investigations of the inhibition of serotonin re-uptake (5-HT uptake inhibition) were carried out by the methods such as are described in M. Ch. Frink, H. -H. -Hennies, W. Englberger, M. Haurand and B. Wilffert, Arzneim.-Forsch./Drug. Res. 46 (III), 11, 1996, pages 1029–1036. They are introduced herewith as reference and thus form part of the disclosure.
# To carry out these investigations, synaptosomes were freshly isolated from rat brain areas. In each case the so-called “P2” fraction was used, which was prepared according to the instructions in E. G. Gray and V. P. Whittaker, J. Anat. 76, pages 79–88, 1962. This literature is introduced herewith as reference and thus forms part of the disclosure. For determination of the 5-HT uptake, these vesicular particles were isolated from the pons and medulla oblongata region of the male rat brain.
# The following characteristic data were determined for the 5-HT transporter: • 5-HT uptake: Km=0.084±0.011 μM • Vmax: 38.13±4.52 pmol/min/mg protein.
# The results of the investigations are in each case stated as means from 2 parallel experiments.
# T1 sequence (P31652 whole entry): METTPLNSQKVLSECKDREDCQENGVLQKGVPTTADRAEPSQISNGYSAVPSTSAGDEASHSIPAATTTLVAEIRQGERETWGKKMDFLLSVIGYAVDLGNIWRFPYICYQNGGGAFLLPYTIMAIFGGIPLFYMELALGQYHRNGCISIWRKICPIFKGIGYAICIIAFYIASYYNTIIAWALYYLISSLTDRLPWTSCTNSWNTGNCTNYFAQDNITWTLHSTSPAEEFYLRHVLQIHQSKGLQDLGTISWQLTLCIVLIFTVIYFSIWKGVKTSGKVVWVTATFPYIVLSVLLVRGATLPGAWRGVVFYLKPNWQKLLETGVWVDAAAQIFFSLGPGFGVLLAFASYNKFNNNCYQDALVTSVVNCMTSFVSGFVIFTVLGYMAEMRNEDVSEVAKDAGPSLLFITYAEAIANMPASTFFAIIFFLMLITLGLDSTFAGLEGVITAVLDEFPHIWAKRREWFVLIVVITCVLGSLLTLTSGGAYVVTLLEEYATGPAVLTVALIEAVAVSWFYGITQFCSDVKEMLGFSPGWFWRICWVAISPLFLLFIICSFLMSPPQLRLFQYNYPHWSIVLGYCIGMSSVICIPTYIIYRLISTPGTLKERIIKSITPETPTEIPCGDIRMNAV
smiles,measurement,value
"Cc1cccc(C(c2c[nH]c3ccc(Cl)cc23)N(C)C)c1 (stereo not drawn) [Example 92, [(5-Chloro-1H-indol-3-yl)-m-tolyl-methyl]-dimethyl-amine]",Inhibition of 5HT uptake in %,46%
"Cc1[nH]c2ccccc2c1C(c1cccc(Oc2ccccc2)c1)N(C)C (stereo not drawn) [Example 95, Dimethyl-[(2-methyl-1H-indol-3-yl)-(3-phenoxy-phenyl)-methyl]-amine]",Inhibition of 5HT uptake in %,70%
"Cc1ccccc1C(c1cn(C)c2ccccc12)N(C)C (stereo not drawn) [Example 90, Dimethyl-[(1-methyl-1H-indol-3-yl)-o-tolyl-methyl]-amine]",Inhibition of 5HT uptake in %,44%
"CCn1c(-c2ccccc2)c(C(c2cccc(Oc3ccccc3)c2)N(C)C)c2ccccc21 (stereo not drawn) [Example 96, [(1-Ethyl-2-phenyl-1H-indol-3-yl)-(3-phenoxy-phenyl)-methyl]-dimethylamine]",Inhibition of 5HT uptake in %,55%
"Cc1ccccc1C(c1c[nH]c2ccc(Cl)cc12)N(C)C (stereo not drawn) [Example 91, [(5-Chloro-1H-indol-3-yl)-o-tolyl-methyl]-dimethyl-amine]",Inhibition of 5HT uptake in %,49%
"CCc1cccc2c(C(c3ccccc3C)N(C)C)c[nH]c12 (stereo not drawn) [Example 89, [(7-Ethyl-1H-indol-3-yl)-o-tolyl-methyl]-dimethyl-amine]",Inhibition of 5HT uptake in %,45%
"CCc1cccc2c(C(c3ccc(OC)c(OC)c3)N(C)C)c[nH]c12 (stereo not drawn) [Example 81, [(3,4-Dimethoxy-phenyl)-(7-ethyl-1H-indol-3-yl)-methyl]-dimethyl-amine]",Inhibition of 5HT uptake in %,68%
"Cc1[nH]c2ccccc2c1C(c1c(F)cccc1Cl)N(C)C (stereo not drawn) [Example 74, [(2-Chloro-6-fluoro-phenyl)-(2-methyl-1H-indol-3-yl)-methyl]-dimethyl-amine]",Inhibition of 5HT uptake in %,72%
"COc1ccc(C(c2c(C)[nH]c3ccccc23)N(C)C)cc1OC (stereo not drawn) [Example 78, [(3,4-Dimethoxy-phenyl)-(2-methyl-1H-indol-3-yl)-methyl]-dimethyl-amine]",Inhibition of 5HT uptake in %,73%
"CN(C)C(c1ccccc1C(F)(F)F)c1c[nH]c2ccc(Cl)cc12 (stereo not drawn) [Example 102, [(5-Chloro-1H-indol-3-yl)-(2-trifluoromethyl-phenyl)-methyl]-dimethyl-amine]",Inhibition of 5HT uptake in %,42%
"COc1ccc(C(c2cn(C)c3ccccc23)N(C)C)cc1OC (stereo not drawn) [Example 82, [(3,4-Dimethoxy-phenyl)-(1-methyl-1H-indol-3-yl)-methyl]-dimethyl-amine]",Inhibition of 5HT uptake in %,42%
"COc1ccc(C(c2c(-c3ccc(F)c(Cl)c3)[nH]c3ccccc23)N(C)C)cc1OC (stereo not drawn) [Example 84, [[2-(3-Chloro-4-fluoro-phenyl)-1H-indol-3-yl]-(3,4-dimethoxy-phenyl)-methyl]-dimethyl-amine]",Inhibition of 5HT uptake in %,44%
"CCn1c(-c2ccccc2)c(C(c2ccc(C(C)(C)C)cc2)N(C)C)c2ccccc21 (stereo not drawn) [Example 72, [(4-tert-Butyl-phenyl)-(1-ethyl-2-phenyl-1H-indol-3-yl)-methyl]-dimethyl-amine]",Inhibition of 5HT uptake in %,60%
"Cc1[nH]c2ccccc2c1C(c1ccc(C(F)(F)F)cc1)N(C)C (stereo not drawn) [Example 103, Dimethyl-[(2-methyl-1H-indol-3-yl)-(4-trifluoromethyl-phenyl)-methyl]-amine]",Inhibition of 5HT uptake in %,74%
"Cc1cccc2[nH]cc(C(c3ccc(F)cc3)N(C)C)c12 (stereo not drawn) [Example 86, [(4-Fluoro-phenyl)-(4-methyl-1H-indol-3-yl)-methyl]-dimethyl-amine]",Inhibition of 5HT uptake in %,41%
"COc1cccc(C(c2c(C(=O)O)[nH]c3ccc(O)cc23)N(C)C)c1OC (stereo not drawn) [Example 77, 3-[(2,3-Dimethoxy-phenyl)-dimethylamino-methyl]-5-hydroxy-1H-indole-2-carboxylic Acid]",Inhibition of 5HT uptake in %,38%
"Cc1[nH]c2ccccc2c1C(c1ccc(F)cc1Cl)N(C)C (stereo not drawn) [Example 73, [(2-Chloro-4-fluoro-phenyl)-(2-methyl-1H-indol-3-yl)-methyl]-dimethyl-amine]",Inhibition of 5HT uptake in %,41%
"Cc1ccccc1C(c1c(C)[nH]c2ccccc12)N(C)C (stereo not drawn) [Example 88, Dimethyl-[(2-methyl-1H-indol-3-yl)-o-tolyl-methyl]-amine]",Inhibition of 5HT uptake in %,62%
